Data published in publication PMC9464622, “The collectin SP-A and its trimeric recombinant fragment protect alveolar epithelial cells from the cytotoxic and proinflammatory effects of human cathelicidin in vitro” (Frontiers in Immunology, 2022).

Experiments:
[1] = molecular target: T1, rfhSP-A (recombinant trimeric fragment of human SP-A) (Homo sapiens, UniProt Q8IWL2); assay: Binding of LL-37 to rfhSP-A by intrinsic tryptophan fluorescence titration
T1 construct: including the globular carbohydrate recognition domain (CRD), neck, and 8 x Gly-Xaa-Yaa repeats of the collagen stalk; His6 (N, cleaved yes); NT* solubility tag (spider silk) with coxsackievirus 3C protease site (N, cleaved yes); made in house; host or cells: Escherichia coli BL21 (DE3)
Procedure: (§1) Fluorescence measurements were carried out in 5 x 5 quartz cuvettes using an SLM-Aminco AB-2 spectrofluorimeter equipped with a thermostated cuvette holder (± 0.1°C; Spectronic, Waltham, MA, USA). The slit widths were 4 nm for the excitation and emission beams. The tryptophan fluorescence emission spectrum of SP-A and rfhSP-A was recorded from 305 to 400 nm on excitation at 295 nm at 25°C in 5 mM Tris HCl buffer (pH 7.4), with or without 150 mM NaCl. Subsequently, the titration experiment was started by adding increasing amounts of LL-37 to the protein solution in the cuvette. The fluorescence intensity readings were corrected for the dilution caused by LL-37 addition.
(§2) The change in the fluorescence of SP-A (or rfhSP-A) at the emission wavelength maximum was monitored as a function of LL-37 concentration, and the titration data were analyzed by nonlinear least squares fitting to the Hill equation, as previously reported ([24], [35], [36]):
(§3) (1) ΔF/ΔFmax=[L]^nH/([L]^nH+KD)
(§4) where ΔF is the change in fluorescence intensity at 337 nm relative to the intensity of free SP-A (for free rfhSP-A, the emission wavelength maximum was 342 nm); ΔFmax is the change in fluorescence intensity at saturating LL-37 concentrations; KD is the apparent equilibrium dissociation constant; [L] is the molar concentration of free LL-37; and nH is the Hill coefficient.

[2] = tested on: P2X7 channels, A549 pneumocytes; assay type: cell-based, human; conditions: A-438079 10 µM, 15 min pre-treatment; LL-37 2.5 µM, SP-A 0.15 µM, rfhSP-A 0.88 µM, 1 hour
Procedure: (§5) For flow cytometry analysis, A549 cells were grown in RPMI 1640 medium supplemented with antibiotics, 2 mM L-glutamine, and 10% FBS. […] A-438079 stock was resuspended in DMSO to a final concentration of 30 mM and aliquots were stored at 4°C. Cell fluorescence was analyzed after 15, 30 and 60 minutes in a Becton-Dickinson FACS Calibur cytometer, using Cell Quest software.
(§6) The incorporation of PI in A549 and U937 cell lines was analyzed by flow cytometry. Cells were cultured 18 h in RPMI 1640 medium supplemented with antibiotics, 2 mM L-glutamine, and 10% FBS. Then, cells were harvested and incubated in PBS with 10 µg/ml PI in the presence or absence of 2.5 µM LL-37, 0.15 µM SP-A or 0.88 µM rfhSP-A, and combinations thereof. A549 were incubated at 500,000 cells/ml density and U937 at 1,000,000 cells/ml. PI incorporation was measured after 15, 30, 45 and 60 minutes by flow cytometry. In some experiments, cells were pre-treated with 1 or 10 µM A-438079 or vehicle (DMSO).

[3] = tested on: P2X7 channels, U937 monocytes; assay type: cell-based, human; conditions: A-438079 10 µM, 15 min pre-treatment; LL-37 2.5 µM, SP-A 0.15 µM, rfhSP-A 0.88 µM, 1 hour
Procedure: as §5, §6

[4] = molecular target: T2, human SP-A (Homo sapiens, UniProt Q8IWL1+Q8IWL2); assay: Binding of LL-37 to SP-A by intrinsic tryptophan fluorescence titration
T2 construct: Human SP-A was isolated from bronchoalveolar lavage fluid of patients with alveolar proteinosis; from tissue; host or cells: bronchoalveolar lavage fluid of patients with alveolar proteinosis
Procedure: as §1, §2, §3, §4

[5] = tested on: A549 cells; assay: Propidium iodide uptake, A549; assay type: cell-based, human; conditions: LL-37 2.5 µM, SP-A 0.15 µM, rfhSP-A 0.88 µM, 15-60 min, 37°C, flow cytometry
Procedure: (§7) Human cell lines of alveolar basal epithelium A549 (ATTC® CCL-185TM) and monocytes U937 (ATTC® CRL-1593.2TM) were incubated in RPMI 1640 supplemented with 10% (v/v) heat-inactivated fetal bovine serum (FBS), antibiotics (100 U/ml penicillin and 100 μg/ml streptomycin), and 2 mM L-glutamine (BioWhittacker).
as §6

[6] = tested on: A549 cells; assay type: cell-based, human; conditions: LL-37 2.5 µM, SP-A 0.15 µM, rfhSP-A 0.88 µM, 15-60 min 37°C; complexes vs LL-37 alone p < 0.001
Procedure: as §7
(§8) Incorporation of Sytox Green in A549 cells was analyzed by confocal microscopy and flow cytometry analysis.
as §5

[7] = tested on: U937 cells; assay: Propidium iodide uptake, U937; assay type: cell-based, human; conditions: LL-37 2.5 µM, SP-A 0.15 µM, rfhSP-A 0.88 µM, 15-60 min, 37°C, flow cytometry
Procedure: as §7, §6

[8] = tested on: A549 cells; assay type: cell-based, human; conditions: LL-37 2.5 µM, SP-A 0.15 µM, rfhSP-A 0.88 µM, 30 min 37°C; complexes vs LL-37 alone p < 0.001
Procedure: as §7, §8
For confocal microscopy analysis, cells were seeded to a density of 30,000 cells per well in a 24-well tissue culture plate for 18 h in RPMI 1640 tissue culture medium supplemented with 100 U/ml penicillin, 100 μg/ml streptomycin, 2 mM L-glutamine, and with 5% FBS. The following day, Sytox Green (1 µM, final concentration) was added to the wells 10 minutes before the addition of 2.5 µM (11.25 µg/ml) LL-37 and/or 0.15 µM (100 µg/ml) SP-A or 0.88 µM (50 µg/ml) rfhSP-A for an additional 30 minutes. At the end of the incubation, fluorescence and differential interference contrast micrographs were taken under an Olympus FV1200 confocal system. Quantification of permeabilized cells (Sytox Green+) per cell number was performed using Image J software on each of 12 micrographs per treatment and experiment.

T2 sequence (Q8IWL2 21-248): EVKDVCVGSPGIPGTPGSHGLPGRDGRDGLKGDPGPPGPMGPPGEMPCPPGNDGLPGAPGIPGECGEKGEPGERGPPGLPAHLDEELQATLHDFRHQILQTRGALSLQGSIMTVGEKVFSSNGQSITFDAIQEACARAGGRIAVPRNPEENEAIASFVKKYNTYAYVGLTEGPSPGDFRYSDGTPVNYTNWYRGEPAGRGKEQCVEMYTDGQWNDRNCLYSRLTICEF
T2 sequence (Q8IWL1 21-248): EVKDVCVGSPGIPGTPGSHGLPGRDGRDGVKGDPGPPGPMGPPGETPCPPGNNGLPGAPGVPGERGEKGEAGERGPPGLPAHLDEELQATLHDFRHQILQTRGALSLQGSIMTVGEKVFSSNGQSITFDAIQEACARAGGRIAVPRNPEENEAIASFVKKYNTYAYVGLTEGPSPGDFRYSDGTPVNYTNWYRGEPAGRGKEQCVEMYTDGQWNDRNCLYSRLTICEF
T1 sequence (Q8IWL2 77-248 limits assumed): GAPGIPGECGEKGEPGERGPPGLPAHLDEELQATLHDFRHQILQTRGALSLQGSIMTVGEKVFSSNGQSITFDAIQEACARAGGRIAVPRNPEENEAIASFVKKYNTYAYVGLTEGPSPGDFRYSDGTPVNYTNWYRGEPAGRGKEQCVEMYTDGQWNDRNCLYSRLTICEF

SMILES: CC[C@H](C)[C@H](NC(=O)[C@H](CCCCN)NC(=O)[C@H](CCC(=O)O)NC(=O)[C@H](CCCCN)NC(=O)[C@H](CO)NC(=O)[C@H](CCCCN)NC(=O)[C@H](CCCNC(=N)N)NC(=O)[C@H](Cc1ccccc1)NC(=O)[C@H](Cc1ccccc1)NC(=O)[C@H](CC(=O)O)NC(=O)CNC(=O)[C@H](CC(C)C)NC(=O)[C@@H](N)CC(C)C)C(=O)NCC(=O)N[C@@H](CCCCN)C(=O)N[C@@H](CCC(=O)O)C(=O)N[C@@H](Cc1ccccc1)C(=O)N[C@@H](CCCCN)C(=O)N[C@@H](CCCNC(=N)N)C(=O)N[C@H](C(=O)N[C@H](C(=O)N[C@@H](CCC(N)=O)C(=O)N[C@@H](CCCNC(=N)N)C(=O)N[C@H](C(=O)N[C@@H](CCCCN)C(=O)N[C@@H](CC(=O)O)C(=O)N[C@@H](Cc1ccccc1)C(=O)N[C@@H](CC(C)C)C(=O)N[C@@H](CCCNC(=N)N)C(=O)N[C@@H](CC(N)=O)C(=O)N[C@@H](CC(C)C)C(=O)N[C@H](C(=O)N1CCC[C@H]1C(=O)N[C@@H](CCCNC(=N)N)C(=O)N[C@H](C(=O)N[C@@H](CCC(=O)O)C(=O)N[C@@H](CO)C(=O)O)[C@@H](C)O)C(C)C)[C@@H](C)CC)C(C)C)[C@@H](C)CC [LL-37]
- Kd [1]: 1.2 ± 0.7 nM
- LL-37-induced dye uptake with / without P2X7 inhibitor, A549 [2]: partially mediated by activation of P2X7 channels
- LL-37-induced dye uptake with / without P2X7 inhibitor, U937 [3]: partially mediated by activation of P2X7 channels
- Kd [4]: 0.45 ± 0.01 nM
- PI uptake, A549 pneumocytes [5]: induced significant PI incorporation into human cells as a function of time
- Sytox Green incorporation, A549, flow cytometry [6]: induced Sytox Green incorporation in human pneumocytes
- PI uptake, U937 monocytes [7]: induced significant PI incorporation into human cells as a function of time
- Sytox Green incorporation, A549, confocal [8]: induced Sytox Green incorporation in human pneumocytes
